SMILES strings stand for the structures. pEC50: −log10 of the molar value.

In this assay the target is T1, human IL-17AA (Homo sapiens, UniProt Q16552).
T1 construct: host or cells: HEK (human embryonic kidney) cells
T1 sequence (Q16552 24-155): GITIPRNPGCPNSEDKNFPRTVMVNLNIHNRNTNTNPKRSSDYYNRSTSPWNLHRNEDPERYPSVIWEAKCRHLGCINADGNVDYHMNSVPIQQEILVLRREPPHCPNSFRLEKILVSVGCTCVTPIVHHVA
The experiment in a line: IL-8 release assay in human epithelial keratinocytes adult (HEKa). It counts as cell-based. To be noted: HEKa cells, 3 ng/mL HEK-human IL-17AA + 10 ng/mL human TNFalpha; read-out: Rel EC50 IL-8 release assay. Summed up:
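IL-8 release, quantified by HTRF and normalized to controls, reports IL-17 signaling in HEKa cells treated with compound plus final 3 ng/mL IL-17AA (HEK-derived) and 10 ng/mL TNF-alpha for 68-72 h; TNF-alpha-only wells set 100% inhibition. Four-parameter logistic fits (r^2>0.9) give relative IC50 and Emax; PrestoBlue flags cytotoxicity.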

With `Cn1cncc1-c1ccc(NC(=O)[C@@H](NC(=O)C2(F)CC2)C(c2ccccc2)c2ccccc2)cc1` [Example 347, N-[(1S)-1-benzhydryl-2-[4-(3-methylimidazol-4-yl)anilino]-2-oxo-ethyl]-1-fluoro-cyclopropanecarboxamide], the pEC50 is 6.00 to 7.00. As for `Cc1n[nH]c(C)c1-c1ccc(NC(=O)[C@@H](NC(=O)N2CCCC2CO)C2CCCCC2)cc1` (single isomer, unassigned) [Example 474], the negative logarithm of the EC50 (pEC50) was less than 6.00. With `Cc1n[nH]c(C)c1-c1ccc(NC(=O)[C@@H](NC(=O)c2ccnn2C)C(C2CC2)C2CC2)cc1O` [Example 414, N-[(1S)-1-(dicyclopropylmethyl)-2-[4-(3,5-dimethyl-1H-pyrazol-4-yl)-3-hydroxy-anilino]-2-oxo-ethyl]-2-methyl-pyrazole-3-carboxamide] the figure was greater than 7.00. With `Cn1cncc1-c1ccc(NC(=O)[C@@H](NC(=O)c2ccnn2C)C2CCCCC2)cc1O` [Example 419, N-[(1S)-1-Cyclohexyl-2-[3-hydroxy-4-(3-methylimidazol-4-yl)anilino]-2-oxo-ethyl]-2-methyl-pyrazole-3-carboxamide] the figure was 6.00 to 7.00; with `Cc1n[nH]c(C)c1-c1ccc(NC(=O)[C@@H](NC(=O)c2ccnn2C)C(C)C2CCCCC2)cc1` (stereo partly drawn) [Example 220, N-[(1S)-2-cyclohexyl-1-[[4-(3,5-dimethyl-1H-pyrazol-4-yl)phenyl]carbamoyl]propyl]-2-methyl-pyrazole-3-carboxamide], greater than 7.00; with `Cc1n[nH]c(C)c1-c1ccc(NC(=O)[C@@H](NC(=O)c2ccnn2[C@H](C)CO)C(C)C2CCC2)cc1` (single isomer, unassigned) [Example 164], 6.00 to 7.00.

On to `Cc1n[nH]c(C)c1-c1ccc(NC(=O)[C@@H](NC(=O)c2ccnn2CCO)C(C2CCC2)C2CCC2)cc1` [Example 122], for which the pEC50 is greater than 7.00.

On to `CCC(C)[C@H](NC(=O)OC(C)(C)C)C(=O)Nc1ccc(-c2cncn2C)cc1` (stereo partly drawn) [Example 94, tert-butyl N-[(1S)-2-methyl-1-[[4-(3-methylimidazol-4-yl)phenyl]carbamoyl]butyl] carbamate], for which the pEC50 was less than 6.00. As for `Cc1n[nH]c(C)c1-c1ccc(NC(=O)[C@@H](NC(=O)c2ccnn2C)C(C(C)C)C(C)C)cc1` [Example 244], the pEC50 was greater than 7.00. As for `Cc1n[nH]c(C)c1-c1ccc(NC(=O)[C@@H](NC(=O)C2CCCC2)C(C2CC2)C2CC2)cc1` [Example 170, N-[(1S)-1-(dicyclopropylmethyl)-2-[4-(3,5-dimethyl-1H-pyrazol-4-yl)anilino]-2-oxo-ethyl]cyclopentane carboxamide], the figure is 6.00 to 7.00; as for `CCC(C1CCCCC1)C(NC(=O)c1ccnn1C)C(=O)Nc1ccc(-c2c(C)n[nH]c2C)cc1` (single isomer, unassigned) [Example 258], greater than 7.00. With `Cc1n[nH]c(C)c1-c1ccc(NC(=O)C(NC(=O)c2ccnn2C)C2CCCc3cc(F)ccc32)cc1` (single isomer, unassigned) [Example 260] the figure was greater than 7.00. As for `CCN(CC)C(=O)N[C@H](C(=O)Nc1ccc(-c2c(C)n[nH]c2C)cc1)C1CCCCC1` [Example 462, (2S)-2-cyclohexyl-2-(diethylcarbamoylamino)-N-[4-(3,5-dimethyl-1H-pyrazol-4-yl)phenyl]acetamide], the figure is less than 6.00. With `Cc1n[nH]c(C)c1-c1ccc(NC(=O)C(NC(=O)c2ccnn2CCC(C)O)C2CCCCCCC2)cc1` (single isomer, unassigned) [Example 142, N-[1-cyclooctyl-2-[4-(3,5 dimethyl-1H-pyrazol-4-yl)anilino]-2-oxo-ethyl]-2-(3-hydroxybutyl)pyrazole-3-carboxamide], the pEC50 is 6.00 to 7.00. With `Cc1n[nH]c(C)c1-c1ccc(NC(=O)[C@@H](NC(=O)c2ccnn2C)C2C[C@@H](C)C[C@@H](C)C2)cc1` (stereo partly drawn) [Example 146, N-[(1S)-1-[(3R,5S)-3,5-dimethylcyclohexyl]-2-[4-(3,5-dimethyl-1H-pyrazol-4-yl)anilino]-2-oxo-ethyl]-2-methyl-pyrazole-3-carboxamide], the pEC50 was greater than 7.00.

Take `Cc1n[nH]c(C)c1-c1ccc(NC(=O)[C@H](CC2CCCCC2)NC(=O)c2ccnn2C(C)C)cc1` [Example 17, N-[(1S)-1-(cyclohexylmethyl)-2-[4-(3,5-dimethyl-1H-pyrazol-4-yl)anilino]-2-oxo-ethyl]-2-isopropyl-pyrazole-3-carboxamide]: the pEC50 is 6.00 to 7.00. With `Cc1n[nH]c(C)c1-c1ccc(NC(=O)[C@@H](NC(=O)c2ccnn2C)C2CCCC(C)(C)C2)cc1` (single isomer, unassigned) [Example 239] the figure was greater than 7.00; with `COCCn1nccc1C(=O)N[C@H](C(=O)Nc1ccc(-c2c(C)n[nH]c2C)cc1)C(C1CC1)C1CC1` [Example 206, N-[(1S)-1-(dicyclopropylmethyl)-2-[4-(3,5-dimethyl-1H-pyrazol-4-yl)anilino]-2-oxo-ethyl]-2-(2-methoxyethyl)pyrazole-3-carboxamide], greater than 7.00; with `Cc1n[nH]c(C)c1-c1ccc(NC(=O)C(NC(=O)c2ccnn2C)C(C)c2ccccc2)cc1` (single isomer, unassigned) [Example 236], less than 6.00.

Consider `CCCn1nccc1C(=O)N[C@H](C(=O)Nc1ccc(-c2c(C)n[nH]c2C)cc1)C(C1CC1)C1CC1` [Example 133, N-[(1S)-1-(dicyclopropylmethyl)-2-[4-(3,5-dimethyl-1H-pyrazol-4-yl)anilino]-2-oxo-ethyl]-2-propyl-pyrazole-3-carboxamide], for which the negative-log EC50 (pEC50) was greater than 7.00.

For `Cn1cncc1-c1ccc(NC(=O)C(NC(=O)OC(C)(C)C)C(c2ccccc2)C2CCC2)cc1` (single isomer, unassigned) [Example 310, tert-butyl N-[1-[cyclobutyl(phenyl)methyl]-2-[4-(3-methylimidazol-4-yl)anilino]-2-oxo-ethyl]carbamate], the pEC50 is less than 6.00.

With `Cc1n[nH]c(C)c1-c1ccc(NC(=O)C(NC(=O)c2ccnn2C)C(C)c2ccccc2)cc1` (single isomer, unassigned) [Example 237], the negative-log EC50 (pEC50) was less than 6.00.

With `Cc1n[nH]c(C)c1-c1ccc(NC(=O)[C@@H](NC(=O)c2ccnn2C)C2CC2(C)C)cc1` (single isomer, unassigned) [Example 224], the pEC50 was less than 6.00.

Take `Cc1n[nH]c(C)c1-c1ccc(NC(=O)[C@H](CC2CCC(F)(F)CC2)NC(=O)c2ccnn2C)cc1` [Example 253, N-[(1S)-1-[(4,4-difluorocyclohexyl)methyl]-2-[4-(3,5-dimethyl-1H-pyrazol-4-yl)anilino]-2-oxo-ethyl]-2-methyl-pyrazole-3-carboxamide]: the pEC50 was less than 6.00. With `Cc1n[nH]c(C)c1-c1ccc(NC(=O)[C@@H](NC(=O)c2nccn2C)C2CCCCC2)cc1` [Example 275, N-[(1S)-1-cyclohexyl-2-[4-(3,5-dimethyl-1H-pyrazol-4-yl)anilino]-2-oxo-ethyl]-1-methyl-imidazole-2-carboxamide] the figure was less than 6.00. With `Cc1n[nH]c(C)c1-c1ccc(NC(=O)[C@@H](NC(=O)c2ccnn2C)[C@@H]2CCCc3c(F)cc(Br)cc32)cc1` [Example 262] the figure was 6.00 to 7.00. With `Cc1cn[nH]c1-c1ccc(NC(=O)[C@@H](NC(=O)c2ccnn2C(C)C)C(C2CC2)C2CC2)cc1` [Example 382, N-[(1S)-1-(dicyclopropylmethyl)-2-[4-(4-methyl-1H-pyrazol-5-yl)anilino]-2-oxo-ethyl]-2-isopropyl-pyrazole-3-carboxamide] the figure was 6.00 to 7.00; with `Cn1cnnc1-c1ccc(NC(=O)[C@@H](NC(=O)c2cnnn2-c2ccccc2)C2CCCCC2)cc1` [Example 348, N-[(1S)-1-cyclohexyl-2-[4-(4-methyl-1,2,4-triazol-3-yl)anilino]-2-oxo-ethyl]-3-phenyl-triazole-4-carboxamide], less than 6.00; with `Cn1cncc1-c1ccc(NC(=O)C(NC(=O)OC(C)(C)C)C(c2ccccc2)C2CCC2)cc1` (single isomer, unassigned) [Example 311, tert-butyl N-[1-[cyclobutyl(phenyl)methyl]-2-[4-(3-methylimidazol-4-yl)anilino]-2-oxo-ethyl]carbamate], less than 6.00. Take `Cc1n[nH]c(C)c1-c1ccc(NC(=O)[C@H](CC(C)C)NC(=O)c2ccnn2C)cc1` [Example 298]: the pEC50 is less than 6.00. With `CCn1nccc1C(=O)NC(C(=O)Nc1ccc(-c2c(C)n[nH]c2C)cc1)C1CCCCCCC1` (single isomer, unassigned) [Example 154, N-[1-cyclooctyl-2-[4-(3,5-dimethyl-1H-pyrazol-4-yl)anilino]-2-oxo-ethyl]-2-ethyl-pyrazole-3-carboxamide] the figure was 6.00 to 7.00; with `Cc1n[nH]c(C)c1-c1ccc(NC(=O)[C@@H](NC(=O)c2ccnn2C)[C@H]2CCc3ccc(Br)cc32)cc1` [Example 5, N-[(1S)-1-[(1S)-6-bromoindan-1-yl]-2[4-(3,5-dimethyl-1H-pyrazol-4-yl)anilino]-2-oxo-ethyl]-2-methyl-pyrazole-3-carboxamide], greater than 7.00; with `Cc1n[nH]c(C)c1-c1ccc(NC(=O)[C@@H](NC(=O)c2cnc3ncccn23)C2CCCCC2)cc1` [Example 72, N-[(1S)-1-cyclohexyl-2-[4-(3,5-dimethyl-1H-pyrazol-4-yl)anilino]-2-oxo-ethyl]imidazo[1,2-a]pyrimidine-3-carboxamide], less than 6.00. Regarding `Cc1n[nH]c(C)c1-c1ccc(NC(=O)[C@@H](NC(=O)c2ccnn2C)C(C)C)cc1` [Example 42, N-[(1S)-1-[[4-(3,5-dimethyl-1H-pyrazol-4-yl)phenyl]carbamoyl]-2-methyl-propyl]-2-methyl-pyrazole-3-carboxamide; 2,2,2-trifluoroacetic acid], the negative-log EC50 (pEC50) was less than 6.00.

One may read the pEC50 as the negative decadic logarithm of the EC50, by convention in mol/L.
